Results on ten compounds are retold here after PMC9358932 (Chemical Science, 2022).

In data set [1] the target is T1, Cp149 reassembled capsids (Hepatitis B virus genotype D subtype ayw, UniProt P03146). The following applies: ITC, TX100 value taken from previous data; cited from earlier work.
Data set [2] concerns the target T1, Cp149 reassembled capsids. Nature of the data set: biochemical. It is filed as binding, Hepatitis B virus (HBV). The following applies: ITC, 50 mM HEPES pH 7.5, 298 K.
The test system of a further data set is Cp149 dimer. Nature of the data set: Solution-state NMR chemical shift perturbations. Format: binding, Hepatitis B virus (HBV). The following applies: 4 molar equivalents of compound.
The subject of a further data set is many organisms. The following applies: cited from earlier work.

Where two headings read alike, the source gives them in different places.

T1 sequence (P03146 1-149): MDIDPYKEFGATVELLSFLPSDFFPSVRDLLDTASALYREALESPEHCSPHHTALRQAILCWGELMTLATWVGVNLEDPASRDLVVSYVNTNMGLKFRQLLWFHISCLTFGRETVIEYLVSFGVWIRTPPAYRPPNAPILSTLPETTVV

In the case of Triton X-100 [Compound 1a], in data set [1], the Kd was 8.3 ± 0.5 µM and the ΔH is -4.59 ± 0.05 kcal/mol. In the case of NP40 [Compound 6g], in data set [2], the ΔH was -3.41 ± 0.09 kcal/mol. In data set [2], `CCC(C)(C)c1ccc(O)cc1` [Compound 4c, 4-tert-amylphenol] displayed a ΔH of -12.7 ± 1.2 kcal/mol and a Kd of 30 ± 4 µM.

As to `CC(C)(C)CC(C)(C)c1ccc(O)cc1` [Compound 1c, 4-tert-octylphenol], in data set [2], the ΔH was -4.79 ± 0.14 kcal/mol and binding was characterised by a dissociation constant (Kd) of 7.5 ± 0.5 µM. The “CSPs / pocket binding in words” value in the data set on Cp149 dimer is given as “as high as those derived for TX100”. The “toxicity / environmental pollutant” value with many organisms is recorded as “toxic to many organisms”.

As to 4-hexylaniline [Compound 2e], the “CSPs / pocket binding in words” value in the data set with Cp149 dimer was “smallest CSPs”.

Consider `CC(C)c1ccc(O)cc1` [Compound 4a, 4-isopropylphenol], for which, in data set [2], the ΔH was -5 ± 3 kcal/mol and binding was characterised by a dissociation constant (Kd) of 18 ± 7 µM. As to Reduced Triton X-100 [Compound 1b], the “CSPs / pocket binding in words” value with Cp149 dimer is “very small CSPs”. As for `CCCCCCc1ccc(O)cc1` [Compound 2a, 4-hexylphenol], in data set [2], the ΔH was -6.0 ± 0.6 kcal/mol and the equilibrium dissociation constant (Kd) is 13 ± 3 µM. For `CCCc1ccc(O)cc1` [Compound 4b, 4-propylphenol] the same measures were -7 ± 4 kcal/mol and 14 ± 7 µM. For 4’-heptylacetophenone [Compound 2d], in the data set on Cp149 dimer, the “CSPs / pocket binding in words” value is “rather small CSPs”.
